Assay results: patent US20260250318A1, “COMPOSITIONS AND METHODS FOR CROSSING THE BLOOD BRAIN BARRIER” (VOYAGER THERAPEUTICS, INC., priority 2022, published 2026)

Test system: brain
Assay: Maturation of TTM-001 capsid, NGS enrichment in brain of CD-1 Outbred mice
Format: in vivo
Details: NGS fold-enrichment of TTM-001 matured AAV capsid variants in the brain of CD-1 Outbred mice; intravenous 1.0×10^12 VG/dose; 14 days in life; RNA; relative to non-matured TTM-001 control
In short: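 Brain enrichment read by NGS after RNA extraction and RT-PCR, expressed as fold ratio over the matching parental capsid (TTM-001 or TTM-002). Libraries, mutated around loop IV positions 449/450–466, were injected intravenously (tail vein, 1.0×10^12 VG/dose) into three female CD-1 mice; brains harvested at 14 days.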

Compared with KTINGSGSPHSKAQNRMR, KTINGSGSPHSKAQNRRS is lower in “Fold enrichment over TTM-001” value: 2.804 fold for the first, 2.613 fold for the second.

First: KTINGSGSPHSKAQNSRR
Second: KTINGSGSPHSKAQNTRR
The “Fold enrichment over TTM-001” value of the first is higher: 3.168 fold for the first, 2.013 fold for the second.

Compared with KTINGSGSPHSKAQNVKL, KTINGSGSPHSKAQNWRT is higher in “Fold enrichment over TTM-001” value: 2.024 fold for the first, 2.125 fold for the second.

First: KTINGSGSPHSKAQNYRA
Second: KTINGSGSPHSKAQPSKT
The “Fold enrichment over TTM-001” value of the first is lower: 2.039 fold for the first, 2.339 fold for the second.

First: KTINGSGSPHSKAQQSRT
Second: KTINGSGSPHSKAQRGMT
The “Fold enrichment over TTM-001” value of the first is higher: 2.337 fold for the first, 2.231 fold for the second.

Compared with KTINGSGSPHSKAQRHAT, KTINGSGSPHSKAQRHVT is higher in “Fold enrichment over TTM-001” value: 2.264 fold for the first, 3.404 fold for the second.

First: KTINGSGSPHSKAQRKLT
Second: KTINGSGSPHSKAQRLRT
The “Fold enrichment over TTM-001” value of the first is higher: 4.339 fold for the first, 4.322 fold for the second.

First: KTINGSGSPHSKAQRLWT
Second: KTINGSGSPHSKAQRRLT
The “Fold enrichment over TTM-001” value of the first is lower: 2.611 fold for the first, 4.227 fold for the second.

First: KTINGSGSPHSKAQRRQT
Second: KTINGSGSPHSKAQRRST
The “Fold enrichment over TTM-001” value of the first is lower: 2.479 fold for the first, 2.993 fold for the second.

Going from KTINGSGSPHSKAQRSRT to KTINGSGSPHSKAQRWLT, the “Fold enrichment over TTM-001” value falls from 3.585 fold to 2.788 fold.

Going from KTINGSGSPHSKAQSHRT to KTINGSGSPHSKAQSLKT, the “Fold enrichment over TTM-001” value rises from 2.084 fold to 2.110 fold.

Compared with KTINGSGSPHSKAQSRRT, KTINGSGSPHSKAQSSKT is lower in “Fold enrichment over TTM-001” value: 3.372 fold for the first, 2.078 fold for the second.

Going from KTINGSGSPHSKAQSSRT to KTINGSGSPHSKAQSVKT, the “Fold enrichment over TTM-001” value falls from 2.575 fold to 2.464 fold.

First: KTINGSGSPHSKAQSWRT
Second: KTINGSGSPHSKAQSYRT
The “Fold enrichment over TTM-001” value of the first is higher: 2.596 fold for the first, 2.088 fold for the second.

First: KTINGSGSPHSKAQTART
Second: KTINGSGSPHSKAQTFRT
The “Fold enrichment over TTM-001” value of the first is lower: 2.363 fold for the first, 2.847 fold for the second.

Compared with KTINGSGSPHSKAQTGRT, KTINGSGSPHSKAQTMRT is higher in “Fold enrichment over TTM-001” value: 2.371 fold for the first, 2.453 fold for the second.

Going from KTINGSGSPHSKAQTNRT to KTINGSGSPHSKAQTSRT, the “Fold enrichment over TTM-001” value rises from 2.510 fold to 3.421 fold.

Going from KTINGSGSPHSKAQTTRT to KTINGSGSPHSKAQVCLT, the “Fold enrichment over TTM-001” value falls from 2.385 fold to 2.182 fold.

Going from KTINGSGSPHSKAQVKLT to KTINGSGSPHSKAQVLIT, the “Fold enrichment over TTM-001” value falls from 2.564 fold to 2.317 fold.

Compared with KTINGSGSPHSKAQVSIT, KTINGSGSPHSKAQVSKT is higher in “Fold enrichment over TTM-001” value: 2.028 fold for the first, 3.406 fold for the second.

Compared with KTINGSGSPHSKAQVTLT, KTINGSGSPHSKAQVVLT is higher in “Fold enrichment over TTM-001” value: 2.179 fold for the first, 2.438 fold for the second.

First: KTINGSGSPHSKAQVWFT
Second: KTINGSGSPHSKAQWLRT
The “Fold enrichment over TTM-001” value of the first is lower: 2.181 fold for the first, 2.795 fold for the second.

First: KTINGSGSPHSKAQWSVT
Second: KTINGSGSPHSKAQWVLT
The “Fold enrichment over TTM-001” value of the first is higher: 2.501 fold for the first, 2.052 fold for the second.

First: KTINGSGSPHSKAQYCLT
Second: KTINGSGSPHSKAQYRLT
The “Fold enrichment over TTM-001” value of the first is higher: 2.628 fold for the first, 2.088 fold for the second.

First: KTINGSGSPHSKAQYYVT
Second: KTINGSGSPHSKARANQT
The “Fold enrichment over TTM-001” value of the first is higher: 6.283 fold for the first, 2.300 fold for the second.

Going from KTINGSGSPHSKARFSQT to KTINGSGSPHSKARFTQT, the “Fold enrichment over TTM-001” value falls from 2.253 fold to 2.233 fold.

Going from KTINGSGSPHSKARGIQT to KTINGSGSPHSKARGQQT, the “Fold enrichment over TTM-001” value falls from 2.140 fold to 2.039 fold.

Compared with KTINGSGSPHSKARGTQT, KTINGSGSPHSKARGVQT is lower in “Fold enrichment over TTM-001” value: 2.505 fold for the first, 2.181 fold for the second.

Going from KTINGSGSPHSKARGYQT to KTINGSGSPHSKARIMQT, the “Fold enrichment over TTM-001” value falls from 2.492 fold to 2.283 fold.

Going from KTINGSGSPHSKARITQT to KTINGSGSPHSKARIVQT, the “Fold enrichment over TTM-001” value rises from 2.525 fold to 3.287 fold.

Compared with KTINGSGSPHSKARKLQT, KTINGSGSPHSKARLAQT is lower in “Fold enrichment over TTM-001” value: 2.458 fold for the first, 2.007 fold for the second.

Going from KTINGSGSPHSKARLQQT to KTINGSGSPHSKARLRQT, the “Fold enrichment over TTM-001” value rises from 2.089 fold to 4.155 fold.

Going from KTINGSGSPHSKARLTQT to KTINGSGSPHSKARLWQT, the “Fold enrichment over TTM-001” value rises from 2.223 fold to 2.914 fold.

Going from KTINGSGSPHSKARLYQT to KTINGSGSPHSKARMAQT, the “Fold enrichment over TTM-001” value rises from 2.201 fold to 2.488 fold.

Compared with KTINGSGSPHSKARMGQT, KTINGSGSPHSKARMQQT is lower in “Fold enrichment over TTM-001” value: 2.564 fold for the first, 2.184 fold for the second.

Going from KTINGSGSPHSKARMTQT to KTINGSGSPHSKARNGQT, the “Fold enrichment over TTM-001” value rises from 2.091 fold to 2.482 fold.

Going from KTINGSGSPHSKARNKQT to KTINGSGSPHSKARPFQT, the “Fold enrichment over TTM-001” value rises from 2.108 fold to 2.443 fold.

Compared with KTINGSGSPHSKARPYQT, KTINGSGSPHSKARQQQT is lower in “Fold enrichment over TTM-001” value: 3.050 fold for the first, 2.244 fold for the second.

First: KTINGSGSPHSKARRLQT
Second: KTINGSGSPHSKARRQQT
The “Fold enrichment over TTM-001” value of the first is lower: 4.210 fold for the first, 4.218 fold for the second.

First: KTINGSGSPHSKARRSQT
Second: KTINGSGSPHSKARSKQT
The “Fold enrichment over TTM-001” value of the first is higher: 3.493 fold for the first, 2.758 fold for the second.

Compared with KTINGSGSPHSKARSRQT, KTINGSGSPHSKARSYQT is lower in “Fold enrichment over TTM-001” value: 2.972 fold for the first, 2.382 fold for the second.

First: KTINGSGSPHSKARTRQT
Second: KTINGSGSPHSKARYSQT
The “Fold enrichment over TTM-001” value of the first is higher: 2.737 fold for the first, 2.369 fold for the second.

Going from KTINGSGSPHSKARYVQT to KTINGSGSPHSKASCRQT, the “Fold enrichment over TTM-001” value rises from 2.749 fold to 2.840 fold.

Compared with KTINGSGSPHSKASKNQT, KTINGSGSPHSKASKQQT is lower in “Fold enrichment over TTM-001” value: 2.171 fold for the first, 2.069 fold for the second.

Compared with KTINGSGSPHSKASKRQT, KTINGSGSPHSKASRGQT is lower in “Fold enrichment over TTM-001” value: 4.117 fold for the first, 2.182 fold for the second.

First: KTINGSGSPHSKASRHQT
Second: KTINGSGSPHSKASRQQT
The “Fold enrichment over TTM-001” value of the first is higher: 2.324 fold for the first, 2.197 fold for the second.

Compared with KTINGSGSPHSKASRRQT, KTINGSGSPHSKATRHQT is lower in “Fold enrichment over TTM-001” value: 3.577 fold for the first, 2.777 fold for the second.

Compared with KTINGSGSPHSKATRNQT, KTINGSGSPHSKATRQQT is lower in “Fold enrichment over TTM-001” value: 2.756 fold for the first, 2.505 fold for the second.

First: KTINGSGSPHSKATRRQT
Second: KTINGSGSPHSKAVRAQT
The “Fold enrichment over TTM-001” value of the first is higher: 3.277 fold for the first, 2.538 fold for the second.

First: KTINGSGSPHSKAVRNQT
Second: KTINGSGSPHSKAVRQQT
The “Fold enrichment over TTM-001” value of the first is higher: 2.516 fold for the first, 2.052 fold for the second.

Compared with KTINGSGSPHSKAVWRQT, KTINGSGSPHSKAWILQT is lower in “Fold enrichment over TTM-001” value: 2.026 fold for the first, 2.004 fold for the second.

First: KTINGSGSPHSKAWLIQT
Second: KTINGSGSPHSKAWLLQT
The “Fold enrichment over TTM-001” value of the first is higher: 2.499 fold for the first, 2.240 fold for the second.

First: KTINGSGSPHSKAWLMQT
Second: KTINGSGSPHSKAWYPQT
The “Fold enrichment over TTM-001” value of the first is lower: 2.015 fold for the first, 2.406 fold for the second.

Compared with KTINGSGSPHSKAYLRQT, KTINGSGSPHSKCLLQQT is higher in “Fold enrichment over TTM-001” value: 3.356 fold for the first, 3.374 fold for the second.

Going from KTINGSGSPHSKCLNQQT to KTINGSGSPHSKCLSQQT, the “Fold enrichment over TTM-001” value falls from 2.594 fold to 2.052 fold.

Going from KTINGSGSPHSKCLTQQT to KTINGSGSPHSKCSNQQT, the “Fold enrichment over TTM-001” value falls from 2.644 fold to 2.020 fold.

First: KTINGSGSPHSKCTLQQT
Second: KTINGSGSPHSKEETQQT
The “Fold enrichment over TTM-001” value of the first is higher: 2.808 fold for the first, 2.223 fold for the second.

First: KTINGSGSPHSKFKLQQT
Second: KTINGSGSPHSKFLFQQT
The “Fold enrichment over TTM-001” value of the first is lower: 2.244 fold for the first, 3.173 fold for the second.

First: KTINGSGSPHSKFSCQQT
Second: KTINGSGSPHSKGCLQQT
The “Fold enrichment over TTM-001” value of the first is higher: 2.348 fold for the first, 2.320 fold for the second.

First: KTINGSGSPHSKGGRQQT
Second: KTINGSGSPHSKGIRQQT
The “Fold enrichment over TTM-001” value of the first is lower: 2.164 fold for the first, 2.497 fold for the second.

Going from KTINGSGSPHSKGRAQQT to KTINGSGSPHSKGRIQQT, the “Fold enrichment over TTM-001” value falls from 2.607 fold to 2.061 fold.

Compared with KTINGSGSPHSKGRSQQT, KTINGSGSPHSKGVRQQT is higher in “Fold enrichment over TTM-001” value: 2.080 fold for the first, 2.115 fold for the second.

Compared with KTINGSGSPHSKHLRQQT, KTINGSGSPHSKIGRQQT is lower in “Fold enrichment over TTM-001” value: 3.438 fold for the first, 2.739 fold for the second.

First: KTINGSGSPHSKILWQQT
Second: KTINGSGSPHSKIRLQQT
The “Fold enrichment over TTM-001” value of the first is higher: 2.838 fold for the first, 2.348 fold for the second.

Going from KTINGSGSPHSKIRPQQT to KTINGSGSPHSKKGGQQT, the “Fold enrichment over TTM-001” value falls from 2.080 fold to 2.009 fold.

Compared with KTINGSGSPHSKKMSQQT, KTINGSGSPHSKKVSQQT is lower in “Fold enrichment over TTM-001” value: 2.235 fold for the first, 2.088 fold for the second.

Going from KTINGSGSPHSKLARQQT to KTINGSGSPHSKLCLQQT, the “Fold enrichment over TTM-001” value falls from 3.054 fold to 2.562 fold.

First: KTINGSGSPHSKLCSQQT
Second: KTINGSGSPHSKLCVQQT
The “Fold enrichment over TTM-001” value of the first is higher: 2.989 fold for the first, 2.659 fold for the second.

First: KTINGSGSPHSKLFRQQT
Second: KTINGSGSPHSKLIRQQT
The “Fold enrichment over TTM-001” value of the first is lower: 3.806 fold for the first, 3.968 fold for the second.

Going from KTINGSGSPHSKLLRQQT to KTINGSGSPHSKLMRQQT, the “Fold enrichment over TTM-001” value falls from 2.981 fold to 2.056 fold.

Compared with KTINGSGSPHSKLNKQQT, KTINGSGSPHSKLPRQQT is lower in “Fold enrichment over TTM-001” value: 3.181 fold for the first, 2.562 fold for the second.
